In patent US9907306B2, “Compositions and methods for controlling nematode pests” (Monsanto Technology LLC, priority 2010, dated 2018):

How the values were obtained:
[1] = system: soybean cyst nematode (SCN); assay: SCN greenhouse soil assay on soybean plants; type: in vivo, H. glycines; settings: 0 day treatment, 0.25 kg/ha rate, harvested 28 days after egg inoculation
Description: Soybeans seeds are planted in 100% sand in two inch square plastic pots.
Chemical treatment is done when the soybeans show the first trifoliate beginning to emerge about 10 to 12 days after planting. At least four hours after chemical application the nematode soybean cyst nematode (SCN) eggs are applied and 28 days after the egg inoculation the test is harvested.
(§1) One milligram of chemistry per four pots is equal to one kilogram per hectare of chemical. A standard test uses four replications. For rates above 2 kg/ha, the desired amount of chemical is weighed into a 30 ml vial (example: 8 kg/ha rate=8 mg chemical in 30 ml vial). The chemical is dissolved in 2 ml of appropriate solvent, generally acetone. For rates below 2 kg/ha, 2 milligrams of chemistry is weighed into the vial and dissolved in 2 ml of the solvent. The appropriate amount of chemical concentrate is then pipetted into a separate 30 ml vial and solvent is added to bring the volume to 2 ml (example 0.5 kg/ha=0.5 ml of concentrate+1.5 ml solvent). Each dissolved concentrate is then brought to a total of 20 milliliters using 0.05% Triton X 100 surfactant solution.
(§2) Pots to be treated are moist but not saturated. To each of four pots, five milliliters of the appropriate chemical solution is pipetted to the media surface making sure to avoid contact with the base of the plant. Immediately following chemical application, using a mist nozzle, the pot surface is wetted sufficiently to saturate the pot watering in the chemistry. The chemical application is done in the morning.
(§3) Nematode eggs, either SCN or RKN, are added to distilled water to create a concentration of […] of water. At least four hours after chemical treatment (0 day testing) or 1 week later (7 day longevity testing) the eggs are applied to the treated pots plus non-treated check plants. A small hole about 1 cm deep is punched into the pot surface. One milliliter of the nematode egg slurry is pipetted into the hole. Immediately afterwards the hole is gently covered. Watering of the test plants is then restricted to only water as needed to prevent wilt for a period of 24 hours. After the 24 hour restricted watering, normal sub-irrigation watering is done for the duration of the test.

[2] = classification by the US Environmental Protection Agency; cited from earlier work
Meloidogyne incognita = assay: M. incognita miniaturized greenhouse assay (cucumber seedling in sand, root galling); type: in vivo; settings: average of triplicate gall rating, scale 0=0-5%, 1=6-20%, 2=21-50%, 3=51-100% root mass galled, 10 to 12 days after inoculation
Procedure: The test compound is dissolved in an acetone solution and added to water. A sprouted cucumber seedling is placed into a vial with dry sand and the water-chemical solution is added immediately. Twenty four hours later Meloidogyne incognita eggs are added to the vials and 10 to 12 days later the roots are evaluated for nematode galling.
Cucumber seeds are sprouted for 3 days in moist paper towels. Acceptable sprouts should be 3 to 4 cm long with several lateral roots just emerging. Stock solutions of chemistry are prepared in a mixture of acetone and Triton X100 (412 mg in 500 mL) to a final concentration of 5 mg/mL. The chemical stock solution is then added to 10 mL deionized water plus 0.015% Triton X100 and mixed thoroughly. This is enough to test each condition in triplicate. Ten mL dry sand is added to each vial. At this time the solubility of the chemistry is visually determined and recorded as either ppt (large precipitates) or cloudy (fine precipitates). Seedlings are planted by tilting the vial and laying the seedling in the correct orientation so that the cotyledons are just above the sand and then tilting back to cover the radicles with sand. 3.3 ml water/chemical mix is added to each vial and the vials placed in racks under fluorescent light banks. The vials are inoculated two days after planting by adding 500 vermiform M. incognita eggs to each vial in 50 uL of deionized or spring water. The vials are then kept under the fluorescent lamps at ambient room temperature and watered as needed with 1 mL deionized water, usually twice during duration of test. Harvest of the cucumber plants is done 10 to 12 days after inoculation by washing sand off the roots. A root gall rating and visual phytotoxicity rating is assigned using the following scales: Gall rating scale (Gall: % root mass galled): 0=0-5%; 1=6-20%; 2=21-50%; and 3=51-100%. The average of the triplicate gall rating is then calculated: green=0.00-0.33 (no galls); yellow=0.67-1.33 (mild galling); orange=1.67-2.33 (moderate galling); red=2.67-3.00 (severe galling). Visual phytotoxicity scale is also assigned (Vis. tox; visual reduction in root mass compared to the control): rs1=mild stunting; rs2=moderate stunting; rs3=severe stunting.

root knot nematode (RKN) = assay: RKN greenhouse soil assay on cucumber plants; type: in vivo, M. incognita; settings: 7 day treatment, rated 14 days after egg inoculation
Description: Cucumber seeds are planted in a sandy soil mixture in two inch square plastic pots. When the cotyledons are fully opened and just as the first leaf begins to emerge, usually 7 days after planting, chemistry for the 7-day treatment is applied. One week later the chemistry for the 0 day treatment is applied. Separate plants are used for each application. The plants are generally in the 1-2 leaf stage now. At least four hours after the chemistry application the pots are inoculated with root knot nematode (RKN) eggs. Plants are rated for galling 14 days after the egg inoculation.
as §1, §2, §3

C. elegans = C. elegans well test (contact assay); type: cell-based; settings: L1 worms, 20° C.
Procedure: C. elegans: Various compounds were tested for nematicidal activity against C. elegans using contact assays in wells. The assays were performed as described below. The test compounds were solubilized in DMSO at 10 mg/ml to create 100× stock solutions. A dilution series was created by diluting the stock solution with DMSO. For each well assay 4 ul of the appropriate dilution is added to a well of a test plate. A 400 ul aliquot of bacterial stock (in M9 buffer with ampicillin) is added to each well of the test plate. Worms are added and the test plate placed on a rotary shaker incubated at 20° C. Worms are examined and scored at 24 hrs, 48 hrs and 72 hours. L1 worms used in the assay are prepared by plating eggs on a plate without a bacterial feeding layer. The eggs hatch and arrest at the L1 stage. This L1 stage population is then used to create a stock for the experiments. A 25 ul aliquot of worms is added to each well in the assay.

H. contortus = H. contortus larval development assay; type: cell-based; settings: at 72 hours; hatching and larval movement
Procedure: The assay was performed essentially as described in: Hubert J, Kerboeuf D. A new method for culture of larvae used in diagnosis of ruminant gastrointestinal strongylosis: comparison with fecal cultures. Can J Comp Med. 1984 48(1):63-71. H. contortus eggs were obtained from Myers Parasitology (Magnolia, Ky.). The test compounds were solubilized in DMSO to create […] stock solutions. 2 ul of compound at various concentrations followed by 200 ul of molten agar were mixed into the wells. Approximately 50 eggs were placed in the well and incubated for 24 hours. After this time, >50% of the eggs were hatched in DMSO controls. After 24 hr, 100 ul of growth medium (Earle's salt solution, 1% yeast extract, 0.9% saline, and sodium bicarbonate to pH 7) containing compound was added to allow larval feeding. After 48 hr in growth medium (total of 72 hours) the wells were evaluated for hatching and larval movement.

[3] = 1 ppm, letters a-d mark separate tests

Row | EC50 (C. elegans; 1 day) | EC50 (C. elegans; 2 days) | EC50 (C. elegans; 3 days) | Compound | percent control (cyst reduction) relative to the control blank treatment [1] | toxicity class [2] | gall ratings (Meloidogyne incognita; [3]) | gall ratings (Meloidogyne incognita; 8 ppm) | percent control (galling reduction) relative to the control blank treatment (root knot nematode (RKN); 0.1 kg/ha rate) | percent control (galling reduction) relative to the control blank treatment (root knot nematode (RKN); 0.25 kg/ha rate) | EC50 (H. contortus)
1 |  |  |  | CNC(=O)O/N=C(\SC)C(=O)N(C)C [Oxamyl, reference compound] | 75%^ | Class I |  |  |  |  | 
2 | 0.8 ppm | 0.8 ppm | 0.9 ppm | Clc1ccc(-n2nnc(-c3cccs3)n2)cc1 [compound 1] | 24%^ |  | 0.67 | 0 | 89% | 92% | <6.3 ppm
3 | > 50 ppm | 0.8 ppm | 0.8 ppm | c1ccc(-n2nnc(-c3cccs3)n2)cc1 [compound 2] | 52%^ |  | 0.67 | 0.33 | 47% | 53% | 6.3-25 ppm
4 | 0.8/0.8/0.8 ppm | 0.8/0.8/0.8 ppm | 0.8/0.8/0.8 ppm | Cc1cc(Cl)ccc1-n1nnc(-c2ccco2)n1 [compound 3] | 44%^ |  | 1.33 | 0 |  |  | <6.3 ppm
5 |  |  |  | Clc1ccc(-n2nnc(N3CCCC3)n2)cc1 [compound 4] |  |  | 1.33 | 0.33 |  |  | 
6 |  |  |  | Cn1cccc1-c1nnn(-c2ccccc2)n1 [compound 5] |  |  | 2.33 | 0.00 |  |  | 
7 |  |  |  | c1ccc(-c2nnn(-c3cccs3)n2)cc1 [compound 6] |  |  | 1.33 | 0.00 |  |  | 
8 |  |  |  | c1ccc(-n2nnc(-n3cccc3)n2)cc1 [compound 7] |  |  | 1.67 | 0.33 |  |  | 
